Test systems include SF-268 CNS; SK-MEL-5 melanoma; RPMI-8226 leukemia; MDA-MB-231 breast; SW-620 colon; K-562 leukemia; A498 renal; OVCAR-4 ovarian.
Common to all, as to test: growth of human tumour cells (NCI), 48 h

Where “and” joins values, the source holds several entries; their conditions need not be identical. Equal entries are not always repeated.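 Each compound was tested at five concentrations against cells in 96-well plates for 48 hours. At the GI50, growth is halved. TGI: total growth inhibition.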 Bounds are passed on as bounds.

On to `O=[N+]([O-])c1ccc2c(N3CCC(CCCC4CCN(c5ncnc6cc([N+](=O)[O-])ccc56)CC4)CC3)ncnc2c1`, for which the GI50 was > 53300 nM in the test with SF-268 CNS; 156 nM in the test with SK-MEL-5 melanoma; 388 nM in the test with RPMI-8226 leukemia; > 47.1 µM in the test on MDA-MB-231 breast; > 48 µM in the test with SW-620 colon; 217 nM in the test on K-562 leukemia. Besides, the GI50 with A498 renal was 1440 nM; with OVCAR-4 ovarian, 21.5 µM. Moreover, the TGI in the test on SF-268 CNS was > 100 µM; with SK-MEL-5 melanoma it was 11.8 µM; in the test with RPMI-8226 leukemia, 96.9 µM; in the test on MDA-MB-231 breast, > 100 µM; with SW-620 colon it was > 100 µM; with K-562 leukemia, > 100 µM. The TGI in the test on A498 renal and in the test on OVCAR-4 ovarian was > 100 µM in each case.
Consider `CN1CCN(c2ccc3nc(-c4c(N)c5c(F)cccc5[nH]c4=O)[nH]c3c2)CC1`, for which the GI50 with SF-268 CNS is 1390 nM and 717 nM and 1650 nM; in the test on SK-MEL-5 melanoma it was 1330 nM and 604 nM and 1720 nM; in the test with RPMI-8226 leukemia, 1170 nM and 909 nM and 1570 nM; with MDA-MB-231 breast it was 1.32 µM and 1.14 µM and 2.05 µM; with SW-620 colon, 0.533 µM and 0.379 µM and 0.576 µM; in the test on K-562 leukemia, 598 nM and 528 nM and 932 nM. In addition, the GI50 in the test with A498 renal was 224 nM and 144 nM and 135 nM; with OVCAR-4 ovarian it was 0.622 µM and 0.498 µM and 0.646 µM. Also, the TGI was 4.16 µM and > 2.83 µM and 10.1 µM in the test on SF-268 CNS; 2.64 µM and 1.29 µM and 3.16 µM with SK-MEL-5 melanoma; 3.74 µM and > 2.77 µM and 4.53 µM in the test with RPMI-8226 leukemia; 5 µM and > 4.19 µM and 8.57 µM with MDA-MB-231 breast; 1.94 µM and 3.21 µM and 2.65 µM in the test with SW-620 colon; 2.62 µM and 2.32 µM and 4.91 µM with K-562 leukemia. Moreover, the TGI in the test on OVCAR-4 ovarian is 4.55 µM and > 10 µM and 10.9 µM.
On to `CCOC(=O)/C=C/c1cc2cc(-c3csc4ccccc34)ccc2[nH]1`, for which the GI50 in the test on SF-268 CNS is 11000 nM; with SK-MEL-5 melanoma, 4520 nM; with RPMI-8226 leukemia, 2870 nM; with MDA-MB-231 breast it was 5.26 µM; with SW-620 colon it was 3.54 µM; in the test on K-562 leukemia, 2090 nM. Besides, the GI50 is 12000 nM in the test with A498 renal and 7.1 µM with OVCAR-4 ovarian. The TGI with SF-268 CNS came to 26.6 µM; in the test with SK-MEL-5 melanoma, 16.6 µM; in the test on RPMI-8226 leukemia, 12.3 µM; in the test with MDA-MB-231 breast it was 18.2 µM; with SW-620 colon it was 14.1 µM; in the test with K-562 leukemia, 10.3 µM. The TGI in the test on A498 renal is 24.6 µM; in the test with OVCAR-4 ovarian it was 19.8 µM.
Turning to `c1ccc(-c2cc(C3CO3)c3ccccc3n2)cc1` (stereo not given), the TGI in the test on SF-268 CNS was found to be 47.3 µM; in the test with SK-MEL-5 melanoma, 31.4 µM; in the test on RPMI-8226 leukemia, 58.1 µM; in the test on MDA-MB-231 breast it was 51.7 µM; in the test with SW-620 colon, 71.3 µM; with K-562 leukemia, 93.1 µM. Also, the TGI was determined as 39.8 µM in the test with A498 renal and 37.2 µM in the test with OVCAR-4 ovarian.
Regarding `CC(=O)OCC(=O)O[C@@H]1C[C@]2(C(C)C)O[C@@]1(C)[C@@H]1CC[C@@H](C)[C@H]1[C@@H]2OC(=O)/C=C/c1ccccc1`, the GI50 is 2650 nM with SF-268 CNS; 15500 nM with SK-MEL-5 melanoma; 18800 nM in the test with RPMI-8226 leukemia; 14 µM with MDA-MB-231 breast; 31 µM in the test on SW-620 colon; 17200 nM in the test with K-562 leukemia. Besides, the GI50 is < 39.9 nM in the test on A498 renal and 22.7 µM with OVCAR-4 ovarian. Further, the TGI in the test with SF-268 CNS was 62.2 µM; in the test with SK-MEL-5 melanoma, 31.5 µM; in the test with RPMI-8226 leukemia, > 100 µM; in the test on MDA-MB-231 breast, 33.4 µM; in the test on SW-620 colon it was > 100 µM; with K-562 leukemia, > 100 µM. The figures for the TGI with A498 renal and in the test on OVCAR-4 ovarian were 0.472 µM and > 100 µM, respectively.
Regarding `O=C(Nc1cccc(Oc2nnc(Cl)c3ccccc23)c1)Nc1ccc(Cl)c(C(F)(F)F)c1`, the GI50 in the test on SF-268 CNS was 793 nM; with SK-MEL-5 melanoma, 985 nM; with RPMI-8226 leukemia, 336 nM; in the test with MDA-MB-231 breast it was 0.358 µM; in the test with SW-620 colon, 1.92 µM; in the test on K-562 leukemia, 630 nM. In addition, the values for the GI50 in the test with A498 renal and in the test with OVCAR-4 ovarian were 275 nM and 0.593 µM, respectively. Further, the TGI is 5.5 µM in the test on SF-268 CNS; 3.25 µM in the test with SK-MEL-5 melanoma; 1.51 µM with RPMI-8226 leukemia; 2.44 µM in the test with MDA-MB-231 breast; 4.9 µM with SW-620 colon; 4.27 µM in the test on K-562 leukemia. For the same molecule, the TGI in the test with A498 renal was found to be 1.7 µM; with OVCAR-4 ovarian, 6.01 µM.
Consider `CC(C)(C)c1[nH]cnc1/C=c1\[nH]c(=O)/c(=C/c2ccccc2)[nH]c1=O`, for which the GI50 in the test with SF-268 CNS was < 12.3 nM; in the test with SK-MEL-5 melanoma, < 13.3 nM; in the test with RPMI-8226 leukemia, < 17.6 nM; in the test on MDA-MB-231 breast, 0.023 µM; in the test on SW-620 colon, < 0.01 µM; in the test with K-562 leukemia, < 10 nM. For the same molecule, the GI50 in the test on A498 renal was < 10 nM; in the test with OVCAR-4 ovarian, 0.151 µM. Moreover, the TGI in the test on SF-268 CNS is > 70.1 µM; in the test with SK-MEL-5 melanoma it was 0.137 µM; with RPMI-8226 leukemia it was 13.2 µM; with MDA-MB-231 breast it was 30.9 µM; in the test with SW-620 colon it was 50.7 µM; in the test with K-562 leukemia it was > 100 µM. The TGI is 0.51 µM with A498 renal and 55.3 µM with OVCAR-4 ovarian.
As to `C=CC(C)(O)/C=C/C=C(\C)C(CC1OC1(C)C)OC(=O)/C(C)=C\C` (stereo not given), the TGI in the test on SF-268 CNS, with SK-MEL-5 melanoma, in the test with RPMI-8226 leukemia, with MDA-MB-231 breast, in the test on SW-620 colon and with K-562 leukemia was > 100 µM throughout. In addition, the TGI with A498 renal and in the test on OVCAR-4 ovarian was > 100 µM throughout.
Regarding `C/C(=C\C1=C(Cl)C(=O)c2ccccc2C1=O)C(=O)O`, the GI50 in the test with SF-268 CNS is 18300 nM; in the test on SK-MEL-5 melanoma, 17500 nM; with RPMI-8226 leukemia, 20200 nM; with MDA-MB-231 breast it was 18.6 µM; in the test with SW-620 colon, 21.7 µM; in the test on K-562 leukemia, 23100 nM. For the same molecule, the results for the GI50 with A498 renal and in the test with OVCAR-4 ovarian were 21900 nM and 19.9 µM, respectively. For the same molecule, the TGI worked out at 32.2 µM in the test on SF-268 CNS; 31.3 µM with SK-MEL-5 melanoma; 46.5 µM with RPMI-8226 leukemia; 33.8 µM in the test with MDA-MB-231 breast; 37.4 µM in the test on SW-620 colon; 54.9 µM in the test with K-562 leukemia. The TGI in the test on A498 renal and with OVCAR-4 ovarian was 36.3 µM each time.
For the molecule `CN(C)CCOc1ccc(/C(=C(/CCCl)c2ccccc2)c2ccccc2)cc1`, the GI50 with SF-268 CNS was 1510 nM; in the test with SK-MEL-5 melanoma, 784 nM; with RPMI-8226 leukemia it was 1030 nM; in the test with MDA-MB-231 breast it was 1.07 µM; in the test on SW-620 colon it was 0.898 µM; in the test with K-562 leukemia, 1020 nM. The GI50 was 885 nM with A498 renal and 1.47 µM in the test with OVCAR-4 ovarian. The TGI in the test with SF-268 CNS is 17.4 µM and 33 µM; with RPMI-8226 leukemia it was 2.5 µM and 23.6 µM; with K-562 leukemia it was 2.46 µM and 23.6 µM; in the test on A498 renal, 3.12 µM; with OVCAR-4 ovarian, 5.1 µM and 32.9 µM.
As to `Cc1cnc(/C=N\NC(N)=S)c2cccc(N)c12`, the GI50 was 1510 nM with SF-268 CNS; 1250 nM in the test with SK-MEL-5 melanoma; 2100 nM in the test with RPMI-8226 leukemia; 3.2 µM with MDA-MB-231 breast; 3.78 µM in the test with SW-620 colon; 2820 nM with K-562 leukemia. Besides, the values for the GI50 with A498 renal and in the test with OVCAR-4 ovarian were 2040 nM and 3.4 µM, respectively. Moreover, the TGI in the test on SF-268 CNS, in the test with RPMI-8226 leukemia, with MDA-MB-231 breast, in the test with SW-620 colon, in the test on K-562 leukemia and in the test with A498 renal was > 100 µM throughout. The TGI in the test with OVCAR-4 ovarian is > 100 µM.
Regarding `O=C1C2=Nc3ccccc3C(O)N2c2ccccc21` (stereo not given), the TGI in the test on SF-268 CNS is > 100 µM; in the test with SK-MEL-5 melanoma it was 3.76 µM; with RPMI-8226 leukemia it was > 100 µM; in the test on MDA-MB-231 breast, > 100 µM; in the test on SW-620 colon, > 100 µM; in the test with K-562 leukemia, > 100 µM. Besides, the TGI in the test on A498 renal was 90.9 µM; with OVCAR-4 ovarian, > 100 µM.
In the case of `Cn1c(O)c(C(/C=C/c2ccccc2)=NCCN=C(/C=C/c2ccccc2)c2c(O)n(C)c(=O)n(C)c2=O)c(=O)n(C)c1=O`, the GI50 in the test on SF-268 CNS was 15100 nM; in the test with SK-MEL-5 melanoma, 11400 nM; with RPMI-8226 leukemia it was 9300 nM; in the test with MDA-MB-231 breast it was 20.9 µM; in the test with SW-620 colon it was 15.5 µM; with K-562 leukemia it was 14600 nM. Besides, the figures for the GI50 in the test on A498 renal and in the test with OVCAR-4 ovarian were 16600 nM and 13.9 µM, respectively. Also, the TGI in the test on SF-268 CNS was > 50 µM; in the test with SK-MEL-5 melanoma it was 29.5 µM; in the test on RPMI-8226 leukemia, 30.4 µM; with MDA-MB-231 breast, > 50 µM; in the test with SW-620 colon, 34.2 µM; in the test with K-562 leukemia, > 50 µM. Besides, the TGI was 40.7 µM in the test on A498 renal and > 50 µM with OVCAR-4 ovarian.
Take `C[C@@H]1CC[C@@H]2[C@@H]1[C@H](OC(=O)/C=C/c1ccccc1)[C@]1(C3CCCCC3)C[C@@H](NC(=O)CO)[C@@]2(C)O1`: the GI50 is 14300 nM in the test with SF-268 CNS; 15300 nM with SK-MEL-5 melanoma; 20800 nM in the test with RPMI-8226 leukemia; 18.9 µM in the test on MDA-MB-231 breast; 17.8 µM in the test with SW-620 colon; 21100 nM with K-562 leukemia. Also, the GI50 is 2190 nM with A498 renal and 16 µM in the test with OVCAR-4 ovarian. The TGI is 30 µM in the test with SF-268 CNS; 29 µM in the test with SK-MEL-5 melanoma; 44.4 µM in the test with RPMI-8226 leukemia; 35.4 µM with MDA-MB-231 breast; 34.1 µM with SW-620 colon; 45.1 µM in the test with K-562 leukemia. Besides, the TGI in the test with A498 renal was determined as 6.61 µM; with OVCAR-4 ovarian, 35.4 µM.

The record behind these values is PubChem BioAssay (NCI).
